Source: ChEMBL document CHEMBL5584311, “Antiviral Chlorinated Drimane Meroterpenoids from the Fungus Talaromyces pinophilus LD-7 and Their Biosynthetic Pathway” (J Nat Prod, 2024)

What was measured:
[1] = tested on: Vesicular stomatitis virus; test: Antiviral activity against Vesicular stomatitis virus infected in African green monkey Vero cells assessed as inhibition of cytopathic effect pre-infected with cells for 12 hrs followed by viral infection and measured after 24 hrs by fluorescence based CPE reduction method; format: functional, organism-based
[2] = tested on: Hepatitis C virus; test: Antiviral activity against HCV infected in human Huh7.5 cells stably expressing firefly luciferase by microplate luminometer based analysis; format: functional, organism-based, Hepacivirus hominis
[3] = tested on: HL-60; test: Cytotoxicity against human HL-60 cells; format: functional
[4] = tested on: K562; test: Cytotoxicity against human K562 cells; format: functional
[5] = tested on: MGC-803; test: Cytotoxicity against human MGC-803 cells; format: functional
[6] = tested on: Bel-7402; test: Cytotoxicity against human Bel-7402 cells; format: functional
[7] = tested on: SH-SY5Y; test: Cytotoxicity against human SH-SY5Y cells; format: functional
[8] = tested on: HCT-116; test: Cytotoxicity against human HCT-116 cells; format: functional
[9] = tested on: MDA-MB-231; test: Cytotoxicity against human MDA-MB-231 cells; format: functional
[10] = tested on: A549; test: Cytotoxicity against human A549 cells; format: functional
[11] = Cytotoxicity against human MCF7/ADM cells; format: functional
[12] = Cytotoxicity against human HO-8910 cells; format: functional
[13] = tested on: U-87 MG; test: Cytotoxicity against human U87 cells; format: functional, U-87MG ATCC
[14] = tested on: NCI-H1975; test: Cytotoxicity against human NCI-H1975 cells; format: functional

## C[C@@H]1Cc2c3c(cc(O)c2C(=O)O1)O[C@]1(C)CC[C@H]2C(C)(C)C(=O)CC[C@]2(C)[C@H]1C3
[1]
  IC50: 23 nM

## CC(C)[C@@]12CC[C@]3(C)[C@]4(Cc5c6c(c(O)c(Cl)c5O[C@]4(C)CC[C@]3(O)O1)C(=O)O[C@H](C)C6)O2
[1]
  IC50: 180 nM

## CC(C)[C@@]12CC[C@]3(C)[C@]4(Cc5c(cc(O)c6c5[C@@H](O)[C@@H](C)OC6=O)O[C@]4(C)CC[C@]3(O)O1)O2
[1]
  IC50: 430 nM

## CC1=C(O)C(=O)[C@@]23C(C)CC[C@@H]2[C@H](C)CO[C@]32Oc3cc(O)cc(CO)c3C=C12 (stereo not given in full)
[2]
  IC50: 9500 nM

## CC(C)C1=CC[C@@]2(C)C(=O)CC[C@@]3(C)Oc4cc(O)c5c(c4C[C@@]32O1)[C@@H](O)[C@@H](C)OC5=O
[1]
  IC50: 970 nM

## NC(=O)c1ncn([C@@H]2O[C@H](CO)[C@@H](O)[C@H]2O)n1 [RIBAVIRIN]
[1]
  IC50: 46 nM

## C[C@@H]1Cc2c3c(c(Cl)c(O)c2C(=O)O1)O[C@]1(C)CC[C@]2(O)C(C)(C)[C@@]4(O)CC[C@]2(C)[C@]1(C3)O4
[1]
  IC50: 83 nM

## CC(=O)O[C@@H]1c2c3c(c(Cl)c(O)c2C(=O)O[C@@H]1C)O[C@]1(C)CC[C@]2(O)O[C@@]4(C(C)C)CC[C@]2(C)[C@]1(C3)O4
[1]
  IC50: 260 nM

## C[C@@H]1Cc2c3c(cc(O)c2C(=O)O1)O[C@]1(C)CC[C@]2(O)C(C)(C)[C@@]4(O)CC[C@]2(C)[C@]1(C3)O4
[1]
  IC50: 130 nM

## C[C@@H]1Cc2c3c(cc(O)c2C(=O)O1)O[C@]1(C)CCC[C@](C)([C@H]2C[C@@H](O)C2(C)C)[C@H]1C3
[3]
  CC50: 3350 nM
[4]
  CC50: 3350 nM
[5]
  CC50: 3350 nM
[6]
  CC50: 3350 nM
[7]
  CC50: 3350 nM
[8]
  CC50: 3350 nM
[9]
  CC50: 3350 nM
[10]
  CC50: 3350 nM
[11]
  CC50: 3350 nM
[12]
  CC50: 3350 nM
[13]
  CC50: 3350 nM
[14]
  CC50: 3350 nM

## CC(C)[C@]12CC[C@@]3(C)[C@H](CC[C@@]4(C)Oc5cc(O)c6c(c5C[C@@]43O1)C[C@@H](C)OC6=O)O2
[1]
  IC50: 910 nM

## CC(=O)O[C@@H]1c2c3c(cc(O)c2C(=O)O[C@@H]1C)O[C@]1(C)CC[C@]2(O)O[C@@]4(C(C)C)CC[C@]2(C)[C@]1(C3)O4
[1]
  IC50: 570 nM

## CC(=O)O[C@@H]1c2c3c(cc(O)c2C(=O)O[C@@H]1C)O[C@]1(C)CCC(=O)[C@]2(C)CC=C(C(C)C)O[C@]12C3
[1]
  IC50: 320 nM

## CC(C)[C@]12CC[C@@]3(C)[C@H](CC[C@@]4(C)Oc5c(Cl)c(O)c6c(c5C[C@@]43O1)C[C@@H](C)OC6=O)O2
[1]
  IC50: 18 nM

## CC(=O)O[C@@H]1c2c3c(cc(O)c2C(=O)O[C@@H]1C)O[C@]1(C)CC[C@]2(O)C(C)(C)[C@@]4(O)CC[C@]2(C)[C@]1(C3)O4
[1]
  IC50: 190 nM

## C[C@@H]1Cc2c3c(c(Cl)c(O)c2C(=O)O1)O[C@]1(C)CC[C@H]2C(C)(C)C(=O)CC[C@]2(C)[C@@]1(O)C3
[1]
  IC50: 15 nM

## CC(=O)O[C@@H]1c2c3c(c(Cl)c(O)c2C(=O)O[C@@H]1C)O[C@]1(C)CC[C@@H]2O[C@@]4(C(C)C)CC[C@]2(C)[C@]1(C3)O4
[1]
  IC50: 82 nM

## CC(=O)O[C@@H]1c2c3c(c(Cl)c(O)c2C(=O)O[C@@H]1C)O[C@]1(C)CCC(=O)[C@]2(C)CC=C(C(C)C)O[C@]12C3
[1]
  IC50: 280 nM

## CC(=O)O[C@@H]1c2c3c(cc(O)c2C(=O)O[C@@H]1C)O[C@]1(C)CC[C@@H]2O[C@@]4(C(C)C)CC[C@]2(C)[C@]1(C3)O4
[1]
  IC50: 490 nM
